Experimental data taken from article PMC10588032 (Journal of the American Chemical Society, 2023).
Values belong to the molecule of their own block, whether it stands above or below them. *1 amine or outer side, *2 acyl side, *3 side chain or, on linkers, in order; H or OH if unused. Where a SMILES comes first, the peptide text is derived from it. [ ]: non-standard residue; d: D form. X1 = CC(C)C[C@@H](CCC(=O)[*:2])N[*:1]; β3hN = NC(=O)C[C@H](N)CC(=O)O

How the values were obtained:
[1] = molecular target: NLuc-PTHR1 (UniProt Q03431)
[2] = molecular target: NLuc-PTHR1 (UniProt Q03431); assay: FRET or BRET
[3] = molecular target: T1, PTHR1 (Homo sapiens, UniProt Q03431); assay: PTHR1 activation via cAMP production; type: cell-based
T1 sequence (Q03431 27-593): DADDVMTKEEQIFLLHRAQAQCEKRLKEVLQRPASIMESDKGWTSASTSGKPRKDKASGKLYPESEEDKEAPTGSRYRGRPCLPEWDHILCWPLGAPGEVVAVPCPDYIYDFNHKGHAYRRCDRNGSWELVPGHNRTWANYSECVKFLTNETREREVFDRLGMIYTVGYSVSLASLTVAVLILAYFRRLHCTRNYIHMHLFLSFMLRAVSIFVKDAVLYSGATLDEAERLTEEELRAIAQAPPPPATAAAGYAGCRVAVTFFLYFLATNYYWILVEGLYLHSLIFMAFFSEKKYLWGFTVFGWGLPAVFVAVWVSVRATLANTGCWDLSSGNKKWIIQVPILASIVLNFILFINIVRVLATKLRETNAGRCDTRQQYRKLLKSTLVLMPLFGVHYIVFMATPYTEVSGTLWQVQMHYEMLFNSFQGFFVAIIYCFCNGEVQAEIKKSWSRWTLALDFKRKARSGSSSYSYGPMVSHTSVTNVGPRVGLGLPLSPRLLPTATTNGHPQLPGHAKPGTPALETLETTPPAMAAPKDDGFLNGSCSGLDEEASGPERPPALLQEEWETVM

[4] = molecular target: PTHR2 (Homo sapiens, UniProt P49190); assay: PTHR2 activation via cAMP production; type: cell-based
[5] = molecular target: T1, PTHR1; assay: β-arrestin-1 recruitment to the PTHR1; type: cell-based
[6] = molecular target: T1, PTHR1; assay: β-arrestin-2 recruitment to the PTHR1; type: cell-based
[7] = molecular target: T2, NLuc-PTHR1 (Homo sapiens, UniProt Q03431); assay: NLuc-PTHR1 competition binding
T2 sequence (Q03431 27-593): T1 sequence (Q03431 27-593)

[8] = tested on: PTHR1; assay: PTHR1 cAMP washout assay; type: cell-based; conditions: 10 nM agonist for 20 min, then PTHR1 antagonist PTH(7-34) introduced
[9] = molecular target: T3, PTHR1-RLuc8 (UniProt Q03431 27-593); assay: FRET or BRET
T3 sequence (looked up): T1 sequence (Q03431 27-593)

PTHR2, sequence (P49190 25-550, species assumed): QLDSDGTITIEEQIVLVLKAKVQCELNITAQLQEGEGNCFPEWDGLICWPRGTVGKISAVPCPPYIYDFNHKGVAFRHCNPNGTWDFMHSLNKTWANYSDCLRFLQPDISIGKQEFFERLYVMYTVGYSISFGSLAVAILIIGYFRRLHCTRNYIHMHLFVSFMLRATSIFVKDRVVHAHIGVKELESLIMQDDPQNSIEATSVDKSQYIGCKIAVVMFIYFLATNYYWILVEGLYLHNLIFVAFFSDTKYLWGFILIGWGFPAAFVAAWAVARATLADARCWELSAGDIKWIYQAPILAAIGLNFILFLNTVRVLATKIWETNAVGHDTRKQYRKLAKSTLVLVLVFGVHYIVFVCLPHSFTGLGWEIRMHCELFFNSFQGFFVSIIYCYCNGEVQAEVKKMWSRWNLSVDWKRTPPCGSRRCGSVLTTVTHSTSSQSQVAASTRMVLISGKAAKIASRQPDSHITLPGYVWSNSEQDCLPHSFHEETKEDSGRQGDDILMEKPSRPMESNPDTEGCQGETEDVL

PTHR1 cAMP production, % Max [1]: 102%
IC50 [2]: 22 nM
Molecule: PTH(1-34) (peptide)

EC50 [3]: 2.51 nM
PTHR1 cAMP Production % Max ([3]; maximal response normalized against PTH(1-34), 4 independent experiments, ± SEM): 116 ± 6%
EC50 [4]: 31.6 nM
PTHR2 cAMP Production % Max ([4]; maximal response normalized against PTH(1-34), ≥4 independent experiments, ± SEM): 76 ± 3%
EC50 [5]: 100 nM
PTHR1 β-arrestin-1 Recruitment % Max ([5]; normalized against PTH(1-34), ≥4 independent experiments, ± SEM): 27 ± 3%
EC50 [6]: 100 nM
PTHR1 β-arrestin-2 Recruitment % Max ([6]; normalized against PTH(1-34), ≥3 independent experiments, ± SEM): 21 ± 4%
IC50 [7]: 126 nM
Molecule: CC[C@H](C)[C@H](NC(=O)[C@H](CCC(=O)O)NC(=O)[C@H](CO)NC(=O)[C@@H](NC(=O)[C@@H](N)CO)C(C)C)C(=O)N[C@@H](CCC(N)=O)C(=O)N[C@@H](CC(C)C)C(=O)N[C@@H](CCSC)C(=O)N[C@@H](Cc1c[nH]cn1)C(=O)N[C@@H](CC(N)=O)CC(=O)N[C@H](CCC(=O)N[C@@H](CCCCN)C(=O)N[C@@H](Cc1c[nH]cn1)C(=O)N[C@@H](CC(C)C)C(=O)N[C@@H](CC(N)=O)C(=O)N[C@@H](CO)C(=O)N[C@@H](CCSC)C(=O)N[C@@H](CCC(=O)O)C(=O)N[C@@H](CCCNC(=N)N)C(=O)N[C@H](C(=O)N[C@@H](CCC(=O)O)C(=O)N[C@@H](Cc1c[nH]c2ccccc12)C(=O)N[C@@H](CC(C)C)C(=O)N[C@@H](CCCNC(=N)N)C(=O)N[C@@H](CCCCN)C(=O)N[C@@H](CCCCN)C(=O)N[C@@H](CC(C)C)C(=O)N[C@@H](CCC(N)=O)C(=O)N[C@@H](CC(=O)O)C(=O)N[C@H](C(=O)N[C@@H](Cc1c[nH]cn1)C(=O)N[C@@H](CC(N)=O)C(=O)N[C@@H](Cc1ccccc1)C(N)=O)C(C)C)C(C)C)CC(C)C [Peptide 1] (H-SVSEIQLMH[β3hN][X1]KHLNSMERVEWLRKKLQDVHNF-NH2; N-terminus assumed)
AUC of post-washout PTHR1 cAMP, lower compared to PTH(1-34) [8]: ~ 40%

EC50 of PTH(1-34) for recruitment [9]: 7.2 nM
EC50 of peptide 1 for recruitment [9]: 100 nM
EC50 of peptide 2 for recruitment [9]: 190 nM
B1: β-arrestin-1-Venus (natural protein, UniProt P49407 1-418, looked up)
chain: MGDKGTRVFKKASPNGKLTVYLGKRDFVDHIDLVDPVDGVVLVDPEYLKERRVYVTLTCAFRYGREDLDVLGLTFRKDLFVANVQSFPPAPEDKKPLTRLQERLIKKLGEHAYPFTFEIPPNLPCSVTLQPGPEDTGKACGVDYEVKAFCAENLEEKIHKRNSVRLVIRKVQYAPERPGPQPTAETTRQFLMSDKPLHLEASLDKEIYYHGEPISVNVHVTNNTNKTVKKIKISVRQYADICLFNTAQYKCPVAMEEADDTVAPSSTFCKVYTLTPFLANNREKRGLALDGKLKHEDTNLASSTLLREGANREILGIIVSYKVKVKLVVSRGGLLGDLASSDVAVELPFTLMHPKPKEEPPHREVPENETPVDTNLIELDTNDDDIVFEDFARQRLKGMKDDKEEEEDGTGSPQLNNR
